Test results: the NIST ThermoML archive (doi:10.1016/j.jct.2011.04.008)

Assay: xn = mol fraction of the nth substance listed
Conditions: 101 kPa, Liquid; for viscosity: Capillary tube (Ostwald / Ubbelohde) method; for speed of sound: Linear variable-path acoustic interferometer; for mass density: Pycnometric method

CC(=O)OC(C)(C)C [1,1-dimethylethyl ethanoate] + CCc1ccccc1
Conditions | mass density, 298.15 K [kg/m3] | mass density, 308.15 K [kg/m3] | speed of sound, 298.15 K [m/s] | speed of sound, 308.15 K [m/s] | viscosity, 298.15 K [mPa·s] | viscosity, 308.15 K [mPa·s]
x1 = 0.0979 | 863.9 | 854.7 | 1287 | 1245 | 0.635 | 0.571
x1 = 0.1974 | 863.3 | 853.9 | 1254 | 1214 | 0.639 | 0.573
x1 = 0.2989 | 862.6 | 852.9 | 1224 | 1186 | 0.641 | 0.573
x1 = 0.3983 | 861.9 | 852 | 1198 | 1161 | 0.644 | 0.574
x1 = 0.4976 | 861.3 | 851.1 | 1176 | 1139 | 0.647 | 0.575
x1 = 0.5986 | 860.7 | 850.3 | 1155 | 1119 | 0.651 | 0.576
x1 = 0.6977 | 860.4 | 849.7 | 1137 | 1101 | 0.656 | 0.579
x1 = 0.7979 | – | 849.3 | 1121 | 1085 | 0.663 | 0.582
x1 = 0.8978 | 860.5 | 849.2 | 1106 | 1069 | 0.671 | 0.588
x1 = 1 | 861.1 | 849.4 | 1092 | 1055 | 0.683 | 0.596

CC(=O)OC(C)(C)C [1,1-dimethylethyl ethanoate] + Cc1ccccc1
Conditions | mass density, 298.15 K [kg/m3] | mass density, 308.15 K [kg/m3] | speed of sound, 298.15 K [m/s] | speed of sound, 308.15 K [m/s] | viscosity, 298.15 K [mPa·s] | viscosity, 308.15 K [mPa·s]
x1 = 0.0976 | 861.9 | 851.9 | 1275 | 1232 | 0.567 | 0.502
x1 = 0.1986 | 861.6 | 851.2 | 1242 | 1197 | 0.577 | 0.509
x1 = 0.2993 | 861.2 | 850.5 | 1213 | 1168 | 0.588 | 0.516
x1 = 0.3975 | 860.8 | 849.9 | 1187 | 1143 | 0.599 | 0.524
x1 = 0.4983 | 860.5 | 849.4 | 1165 | 1120 | 0.611 | 0.533
x1 = 0.5978 | 860.3 | 848.9 | 1145 | 1101 | 0.623 | 0.542
x1 = 0.6975 | 860.2 | 848.7 | 1128 | 1085 | 0.636 | 0.553
x1 = 0.7972 | 860.3 | 848.7 | 1113 | 1072 | 0.65 | 0.565
x1 = 0.8987 | 860.6 | 848.9 | 1101 | 1062 | 0.666 | 0.58
x1 = 1 | 861.1 | 849.4 | 1092 | 1055 | 0.683 | 0.596

CC(=O)OC(C)(C)C [1,1-dimethylethyl ethanoate] + c1ccccc1
Conditions | mass density, 298.15 K [kg/m3] | mass density, 308.15 K [kg/m3] | speed of sound, 298.15 K [m/s] | speed of sound, 308.15 K [m/s] | viscosity, 298.15 K [mPa·s] | viscosity, 308.15 K [mPa·s]
x1 = 0.0987 | 870.6 | 859.3 | 1254 | 1215 | 0.613 | 0.54
x1 = 0.1999 | 868.5 | 856.8 | 1220 | 1179 | 0.618 | 0.542
x1 = 0.299 | 866.7 | 854.9 | 1192 | 1150 | 0.623 | 0.544
x1 = 0.3982 | 865.3 | 853.2 | 1169 | 1127 | 0.629 | 0.548
x1 = 0.498 | 864.1 | 851.9 | 1149 | 1107 | 0.636 | 0.552
x1 = 0.5995 | 863 | 850.8 | 1133 | 1091 | 0.643 | 0.558
x1 = 0.6996 | 862.3 | 850 | 1120 | 1079 | 0.651 | 0.565
x1 = 0.7999 | 861.7 | 849.5 | 1109 | 1068 | 0.661 | 0.574
x1 = 0.8993 | 861.3 | 849.4 | 1099 | 1060 | 0.671 | 0.584
x1 = 1 | 861.1 | 849.4 | 1092 | 1055 | 0.683 | 0.596

c1ccccc1 [benzene] + CC(=O)OC(C)(C)C
x2 = 0
Conditions | mass density [kg/m3] | speed of sound [m/s] | viscosity [mPa·s]
298.15 K | 873 | 1296 | 0.609
308.15 K | 862 | 1260 | 0.539

CCc1ccccc1 [ethylbenzene] + CC(=O)OC(C)(C)C
x2 = 0
Conditions | mass density [kg/m3] | speed of sound [m/s] | viscosity [mPa·s]
298.15 K | 864.4 | 1325 | 0.631
308.15 K | 855.4 | 1280 | 0.569

Cc1ccccc1 [toluene] + CC(=O)OC(C)(C)C
x2 = 0
Conditions | mass density [kg/m3] | speed of sound [m/s] | viscosity [mPa·s]
298.15 K | 862.2 | 1312 | 0.556
308.15 K | 852.5 | 1270 | 0.494
